From patent publication US8399440B2, “Disease modifying anti-arthritic activity of 2-methoxyestradiol” (EntreMed, Inc., priority 2006, dated 2013)

Tests used:
[1] = test system: PMNL migration to dermal inflammatory reactions; assay: 51Cr-labeled PMNL migration to dermal inflammatory reactions; type: in vivo, Rat (Lewis)
Source text: Rat blood PMNL were isolated from a donor arthritic rat by hydroxyethyl starch (Hespan; Dupont Merck, Wilmington, Del.) exchange transfusion performed through a needle inserted in a femoral vein. The exchanged blood was collected into heparin and acid-citrate-dextrose (ACD, formula A; Fenwal-Travenol, Malton, ON) and the leukocyte-rich plasma was harvested during 1 g sedimentation of red blood cells. The PMNL were then isolated by centrifugation on discontinuous Percoll density gradients of 63% Percoll above 74% Percoll with 10% autologous plasma and calcium and magnesium-free Tyrode's solution (TyS^-/-) for the balance of the suspending medium. […] After the cells were washed, they were injected i.v. into rats at a dose of 10^7 51Cr-labeled PMNL per animal bearing approximately 1-2×10^5 cpm. These cells were allowed to circulate and migrate for 2 h prior to sacrifice of the rats. […] List Biologicals, Campbell, Calif.) or zymosan-activated serum (rat) as a source of […].^22 2 h before sacrifice, administered in the doses indicated at the same time as the i.v. injection of radiolabeled PMNL. The accumulation of PMNL in these sites was quantified by biopsy of the injection sites using a 12-mm punch biopsy taken following sacrifice of the animals. At the time the rats were killed, cardiac blood was obtained to measure the blood leukocyte count and the leukocyte and plasma associated radioactivity. Joints were dissected and segments of limbs sectioned to include carpal, metacarpal, […] metatarsal joints for analysis as previously reported (Issekutz et al. Lab Invest. (1991), 64:656-63 and Issekutz et al. Arthritis Rheum. (2001), 44:1428-37). The content of ^51Cr in the joints, as well as in dermal skin sites and internal organs, was determined with a Wallac LKB 1280 gamma counter (Fisher Scientific, Nepean, ON). Accumulated isotope in the tissue was expressed as cpm/10^6 cpm injected i.v. In the same rats, the migration of PMNL to dermal inflammatory reactions was measured, these reactions being initiated at the time of radiolabeled PMNL injection. Thus the migration quantitated the acute reaction during the first two hours of the lesions.

[2] = test system: Adjuvant-Induced Arthritis; assay: Adjuvant arthritis, clinical arthritis severity; type: in vivo, Rat (Lewis); details: for arthritis severity (clinical score) by day 14, mean: vehicle reached score 11
[3] = test system: endothelial cell; assay: Endothelial cell proliferation in vitro
[4] = Steady-state PK in study SMP05-010; type: in vivo, Mouse (Balb/C)
[5] = molecular target: T1, estrogen receptor α (Homo sapiens, UniProt P03372); details: LaVallee et al. 2002; cited from earlier work
T1 sequence (P03372 1-595): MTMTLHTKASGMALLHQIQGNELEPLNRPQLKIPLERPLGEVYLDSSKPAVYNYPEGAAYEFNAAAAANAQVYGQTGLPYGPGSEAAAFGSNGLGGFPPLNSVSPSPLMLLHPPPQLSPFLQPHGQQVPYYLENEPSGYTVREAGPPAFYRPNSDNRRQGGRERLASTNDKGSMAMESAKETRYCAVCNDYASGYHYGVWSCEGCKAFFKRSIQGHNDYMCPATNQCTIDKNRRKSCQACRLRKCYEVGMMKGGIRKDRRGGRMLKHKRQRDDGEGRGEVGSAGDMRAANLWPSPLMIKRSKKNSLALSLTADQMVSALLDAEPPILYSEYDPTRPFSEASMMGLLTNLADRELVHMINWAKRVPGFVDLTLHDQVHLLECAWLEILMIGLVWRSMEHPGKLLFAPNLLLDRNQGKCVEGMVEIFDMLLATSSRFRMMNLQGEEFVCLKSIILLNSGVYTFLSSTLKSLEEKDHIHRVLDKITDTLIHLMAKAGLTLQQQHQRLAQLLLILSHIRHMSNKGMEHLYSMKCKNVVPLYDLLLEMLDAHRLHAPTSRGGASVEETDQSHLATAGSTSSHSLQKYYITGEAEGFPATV

With COc1cc2c(cc1O)CC[C@@H]1[C@@H]2CC[C@]2(C)[C@@H](O)CC[C@@H]12 [2ME2, 2-methoxyestradiol] the “PMNL migration to E. coli LPS” value ([1]; dermal sites, 2 h migration) was “did not affect”, the “PMNL migration to complement chemotactic factor C5ades-arg” value ([1]; dermal sites, 2 h migration) was “did not affect” and the “inhibition of PMNL migration to sites injected with rat TNF-α” value ([1]; either dose tested (30 or 100 mg/kg/d), starting at day 6 post-immunization) was “approximately 50%”. For the same molecule, the “inhibition of PMNL migration to sites injected with rat TNF-α” value ([1]; treatment delayed to day 10, tendency for inhibition) was “did not reach significance”, the “arthritis severity (clinical score) by day 14, mean” value ([2]; 30 mg/kg/d i.p. initiated day 6 post-immunization) was 7.4 and the “modification of arthritis severity” value ([2]; 30 mg/kg/d initiated on day 10 post-immunization) was “did not reach statistical significance”. The “arthritis severity (clinical score) by day 14, mean” value ([2]; 100 mg/kg/d i.p. initiated day 6 post-immunization) was 6.5, the arthritis severity ([2]; 100 mg/kg/d initiated at onset of clinical arthritis, day 10 post-immunization) was “attenuation of arthritis severity” and the “IC50, endothelial cell proliferation” value ([3]; optimal serum and endothelial cell growth supplements) was “approximately 0.5 μg/mL”. For the same molecule, the “concentration required for inhibition under optimal versus restricted growth conditions” value ([3]; optimal serum and growth supplements versus restricted) was “two-fold higher concentration”, the IC50 ([3]; read-out: IC50, endothelial cell proliferation, optimal serum and endothelial cell growth supplements) was roughly 1.5 µM and the “concentration giving significant inhibition of endothelial cell proliferation” value ([3]; restricted serum and growth factor) was 0.25 µg/mL. The “Steady-state AUC0-24” value ([4]; 25 mg/kg PO) was 66 ng·h/mL, the “Steady-state AUC0-24” value ([4]; 50 mg/kg PO) was 117 ng·h/mL and the “affinity for estrogen receptor α” value [5] was “low affinity”.
